Holding throughout (format): functional, cell-based
Experiment [1] relates to Hep 3B2. Kind of experiment: Inhibition of hypoxia-induced activation of VEGF gene promoter in human Hep3B cells after 18 hrs by luciferase reporter gene assay.
In experiment [2] the test system is Hep 3B2. Kind of experiment: Inhibition of hypoxia-induced VEGF165 protein secretion in human Hep3B cells after 18 hrs by ELISA.
In experiment [3] the test system is Hep 3B2. Kind of experiment: Effect on luciferase reporter gene expression in human Hep3B cells after 18 hrs.
For experiment [4], the system named is Hep 3B2. Kind of experiment: Growth inhibition of human Hep3B cells after 18 hrs.

The source made the active and inactive calls. The rule behind the calls is not given here.

For the molecule `COC1CC(=O)c2c(C=O)cc(C)cc21` (centres undefined), in the experiment on Hep 3B2 [1], the IC50 was found to be 25 µM. Also, the result in the experiment with Hep 3B2 [2], with Hep 3B2 [3] and in the experiment with Hep 3B2 [4] was inactive.

Source of the values: ChEMBL document CHEMBL1155610, “A new indanone from the marine cyanobacterium Lyngbya majuscula that inhibits hypoxia-induced activation of the VEGF promoter in Hep3B cells” (J Nat Prod, 2000).
